In US20040009921A1, “Methods and compositions for the treatment of cancer” (Allergan, Inc., priority 2002, published 2004):

Experiments:
Type in all cases: cell-based
[1] = target: T1, RARα (Homo sapiens, UniProt P10276); experiment: Western blotting of RAR protein in transfected HEK293 cells; conditions: HEK293 co-expressing RXRα with RARα
T1 construct: expressed in transfected cells; host or cells: HEK293
T1 sequence (P10276 1-462): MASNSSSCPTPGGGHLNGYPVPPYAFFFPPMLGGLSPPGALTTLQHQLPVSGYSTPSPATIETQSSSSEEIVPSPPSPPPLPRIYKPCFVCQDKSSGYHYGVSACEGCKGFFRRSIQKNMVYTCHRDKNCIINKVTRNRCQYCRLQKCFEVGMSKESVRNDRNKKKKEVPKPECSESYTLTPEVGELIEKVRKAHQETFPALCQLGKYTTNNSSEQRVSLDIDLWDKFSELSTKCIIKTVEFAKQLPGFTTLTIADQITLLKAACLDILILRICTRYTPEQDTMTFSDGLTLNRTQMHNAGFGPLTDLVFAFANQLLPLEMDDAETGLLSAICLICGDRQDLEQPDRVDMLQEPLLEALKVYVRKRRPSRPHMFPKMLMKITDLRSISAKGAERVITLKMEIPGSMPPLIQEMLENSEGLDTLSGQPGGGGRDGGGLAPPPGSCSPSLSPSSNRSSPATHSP
Method: HEK293 cells transfected with expression vectors for β-catenin (4 μg) and RXRs (2 μg) or RARs (2 μg) and treated with ligands at concentrations indicated at the top of each gel. Protein levels were detected by Western blotting as shown in this figure. β-catenin and RARs were detected by HRP-conjugated antibodies against their V5 tag. RXRs were detected by HRP-conjugated antibodies against their Flag tag. […] In this experiment, the amount of expression vectors for RXRα and RARs used in transfection was 1 μg.
HEK293 cells were seeded at a density of 2×10 per dish were seeded into 100-mm dishes and cultured overnight in DMEM containing 10% FBS. Cells were transfected with 1-4 μg of various cDNA or parental expression vectors (8 μg of DNA in total) using Lipofectamine®. Five hours after transfection, cells were fed with fresh culture media DMEM containing 10% charcoal-treated FBS with vehicle DMSO or retinoids prepared in DMSO. […]
Total cell lysates were homogenized by passing through a QIAshredder® (Qiagen) and cleared from insoluble materials by centriftigation at 12,000 g. Protein concentration was determined using a Bradford total protein assay kit (Bio-Rad). […]

[2] = system: β-catenin; experiment: Western blotting of β-catenin in CV-1 and Hela cells; conditions: CV1 and Hela cells, 0.1 μM, 17 hours
[3] = system: β-catenin-driven gene transcription in APC-negative colorectal cancer cell line SW480; experiment: Topflash reporter gene assay in SW480 cells
Method: Cultured cells were transfected with 100 ng of reporter gene Topflash® together with expression vectors indicated under each graph. […] (A) Data from HEK293 cells co-transfected with wild type or mutant β-catenin (200 ng) and RXRα (20 ng). (B) CAT, a stable cell line that overexpresses β-catenin (left panel). RBC, a stable cell line that overexpresses both RXRα and β-catenin. (C) SW480, a colorectal cancer cell line, was transfected with 100 ng of Topflash®. The amount of RXRα cotransfected was indicated below the X axis. Reporter activity on the Y axis is expressed as either Luciferase Unit or percentage of activity in cells transfected with Topflash® alone.
For transfection of the HEK293 cell line, cells were seeded at a density of 50,000 cells per well in 24-well plates coated with poly-D-Lysine (Becton Dickinson). […] Harvested cells were lysed, and luciferase activity was measured as previously described (de Wet, J. R., Wood, K. V., DeLuca, M., Helinski, D. R., Subramani, S. (1987) Mol. Cell. Biol. 7, 725-737). In cells transfected with the LacZ control gene, β-galactosidase activity was measured by standard colorimetric assays. Renilla reniformis […] activity was determined using the Dual-Luciferase Reporter 100 Assay System (Promega Corporation, 2800 Woods Hollow Road, Madison Wis. USA 53711). […]

[4] = target: T2, RXRα and ΔNβ-catenin interaction (Homo sapiens, UniProt P19793); experiment: In vivo protein crosslinking and immunoprecipitation; conditions: HEK293, 1 μM AGN 4204 or vehicle before DSP crosslinking
T2 sequence (P19793 1-462): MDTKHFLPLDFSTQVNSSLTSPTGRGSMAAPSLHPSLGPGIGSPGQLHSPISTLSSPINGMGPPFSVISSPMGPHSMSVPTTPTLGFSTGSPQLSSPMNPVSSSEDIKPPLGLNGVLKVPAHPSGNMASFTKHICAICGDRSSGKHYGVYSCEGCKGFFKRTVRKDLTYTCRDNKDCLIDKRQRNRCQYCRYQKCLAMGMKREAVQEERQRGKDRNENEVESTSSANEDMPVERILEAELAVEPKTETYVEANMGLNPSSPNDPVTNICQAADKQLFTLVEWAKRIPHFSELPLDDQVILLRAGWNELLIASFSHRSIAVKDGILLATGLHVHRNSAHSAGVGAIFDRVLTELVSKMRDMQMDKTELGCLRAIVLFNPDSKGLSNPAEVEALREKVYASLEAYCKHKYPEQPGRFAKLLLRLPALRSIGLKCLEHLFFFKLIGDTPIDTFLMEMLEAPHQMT
T2 sequence (P35222 51-781 partner): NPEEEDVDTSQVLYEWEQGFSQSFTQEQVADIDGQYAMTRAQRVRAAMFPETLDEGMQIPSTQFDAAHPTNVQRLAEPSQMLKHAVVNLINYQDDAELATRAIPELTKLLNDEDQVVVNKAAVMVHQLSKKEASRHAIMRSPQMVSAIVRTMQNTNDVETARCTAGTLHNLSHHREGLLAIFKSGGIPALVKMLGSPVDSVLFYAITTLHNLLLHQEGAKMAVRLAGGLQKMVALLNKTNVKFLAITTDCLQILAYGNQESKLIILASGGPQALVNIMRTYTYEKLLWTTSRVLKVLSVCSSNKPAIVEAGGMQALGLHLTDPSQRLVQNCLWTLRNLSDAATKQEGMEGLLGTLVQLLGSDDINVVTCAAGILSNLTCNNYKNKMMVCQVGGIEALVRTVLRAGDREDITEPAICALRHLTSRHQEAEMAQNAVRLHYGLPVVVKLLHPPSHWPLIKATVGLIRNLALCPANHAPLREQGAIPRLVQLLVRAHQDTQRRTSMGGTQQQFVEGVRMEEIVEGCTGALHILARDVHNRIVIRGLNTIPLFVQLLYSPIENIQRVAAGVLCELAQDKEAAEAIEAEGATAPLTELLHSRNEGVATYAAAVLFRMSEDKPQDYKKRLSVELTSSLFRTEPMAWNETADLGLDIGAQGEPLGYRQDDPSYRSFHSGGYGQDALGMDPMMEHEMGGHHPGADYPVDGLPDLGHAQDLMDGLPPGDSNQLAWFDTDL
Method: HEK293 cells were transfected with a combination of 8 μg of ΔNβ-catenin (C) and 4 μg of RXRα. […] Cell lysates were subjected to immunoprecipitation using antibodies against the Flag tag in RXRα. Crosslinked molecules in immunoprecipitates were dissociated by reduction with β-mercaptoethanol before Western blotting analysis using HRP-conjugated antibodies against the v5 tag in ΔNβ-catenin (Top panel).
HEK293 cells were cultured to about 80% confluence in 150-mm Biocoat poly-D-Lysine plates (VWR Cat#354550), and then transfected with expression vectors for ΔN-β-catenin, and RXRα using Lipofectamine® Transfection Reagent (Invitrogen). Cells were then cultured in high glucose DMEM medium containing 10% activated charcoal-extracted fetal bovine serum.
The reaction was quenched by adding Tris buffer at pH7.5 to a final concentration of 20 mM. […]
To determine whether RXRs and β-catenin interact with each other, HEK293 cells were transfected with expression vectors for RXRα and/or ΔNβ-catenin. […] After completion of the cross-linking reaction, cell extracts were prepared and analyzed by immunoprecipitation using antibodies against the FLAG epitope in an RXRα-FLAG fusion protein, followed by Western blotting analysis using antibodies against the V5 Tag in ΔNβ-catenin. […]

**Q.** How did the “degradation of RARα” value [1] turn out when `CC(/C=C/[C@@H]1C[C@]1(C)c1ccc2c(c1)C(C)(C)CCC2(C)C)=C\C(=O)O` [AGN 4204] was run?
**A.** Its value is “RXR-ligand-dependent degradation”.

**Q.** And the “degradation of ΔNβ-catenin protein” value [2]?
**A.** Its value is “susceptible to RXR-mediated degradation”.

**Q.** What about the reporter gene activity ([3]; SW480, low levels of endogenous RXRs only) of the same compound?
**A.** Its reporter gene activity is “not sufficient to produce an effect”.

**Q.** And the reporter gene activity ([3]; SW480 cotransfected with RXRα, 0.1 μM, 17 hours)?
**A.** Its reporter gene activity is “a decrease in reporter gene activity”.

**Q.** And the “interaction between RXRα and ΔNβ-catenin (co-immunoprecipitation)” value [4]?
**A.** Its value is “ligand-independent”.
